Test results reported in PubChem BioAssay AID1996.
In brackets after ≈: the same amount, converted by molar mass.

Settings: buffer; pH 7.4; 200.0 µM
With `CC(=O)c1cccc(NC(=O)COC(=O)CCNS(=O)(=O)c2ccccc2)c1` the solubility kinetic was > 60.7 µg/mL.
Molecule `Nc1ccccc1SC/C=C/CSc1ccccc1N` has a solubility kinetic of 12.8 µg/mL (≈ 42.3 µM).
With `O=C(O)/C=C/c1cnc2ccccc2n1` the solubility kinetic was > 30 µg/mL.
In the case of `N#Cc1ccc(NC(=O)CN2C(=O)NC3(CCCC3)C2=O)cc1`, the solubility kinetic was > 46.8 µg/mL.
With `Fc1ccc(-c2csc(NC(=S)Nc3ccccc3)n2)cc1` the solubility kinetic was 1.6 µg/mL (≈ 4.86 µM).
With `COc1cccc2c(O)c(-c3ccccc3)c(=O)[nH]c12` the solubility kinetic was > 40.1 µg/mL.
`COc1ccc(CCN2C(=NC(=O)C(C)C)SC3CS(=O)(=O)CC32)cc1` (centres undefined) gave a solubility kinetic of 6.6 µg/mL (≈ 16.6 µM).
`COc1ccc(CNC(=O)C2CCCC2)cc1` gave a solubility kinetic of 28.6 µg/mL (≈ 123 µM).
With `COc1ccc(OC)c(NC(=S)N2CCN(C(=O)C3CCCO3)CC2)c1` (centres undefined) the solubility kinetic was > 56.9 µg/mL.
In the case of `CN(CC(=O)OCC(N)=O)S(=O)(=O)c1ccc(Cl)cc1`, the solubility kinetic was > 48.1 µg/mL.
With `CNC(=O)Nc1cccc2cccnc12` the solubility kinetic was > 30.2 µg/mL.
With `Cc1cccc(Nc2c3c(nc4ccccc24)CCC3)c1.Cl` the solubility kinetic was 44.9 µg/mL.
`Cc1ccc(C)c(NC(=O)CSc2cccc3cccnc23)c1` gave a solubility kinetic of 2.2 µg/mL (≈ 6.82 µM).
Work on `Cc1cc(C)c(NS(=O)(=O)c2c(C)noc2C)c(C)c1` yielded a solubility kinetic of 33.3 µg/mL (≈ 113 µM).
With `Cc1c(C(=O)n2cnc3ccccc32)cccc1[N+](=O)[O-]` the solubility kinetic was 39.8 µg/mL (≈ 142 µM).
Molecule `O=C(CCCC(=O)N1CCCC1)N1CCCC1` has a solubility kinetic of 26.3 µg/mL (≈ 110 µM).
For `Nc1ccn([C@H]2C[C@H](O)[C@@H](CO)O2)c(=O)n1.O`, the solubility kinetic was > 36.8 µg/mL.
In the case of `O=C(c1ccc(F)cc1)C1CCN(Cc2ccc(F)cc2)CC1`, the solubility kinetic was 36.2 µg/mL (≈ 115 µM).
Molecule `O=C1/C(=C/c2ccccc2Cl)N2CCC1CC2` has a solubility kinetic of 22.8 µg/mL (≈ 92 µM).
With `Cc1cc(-c2ccccc2)nc(N(C)C)c1S(C)(=O)=O` the solubility kinetic was 25 µg/mL (≈ 86.1 µM).
For `NS(=O)(=O)c1cccc(NC(=O)CSc2nnc3n2CCCCC3)c1`, the solubility kinetic was > 57.2 µg/mL.
With `CNC(=O)Nc1cc(NC(=O)NC)cc(C(F)(F)F)c1` the solubility kinetic was > 43.5 µg/mL.
For `CN(C)S(=O)(=O)c1cccc(C(=O)NCCCn2ccnc2)c1`, the solubility kinetic was > 50.5 µg/mL.
For `O=C(NC1CCCCC1)c1cc(-c2ccc(O)cc2)on1`, the solubility kinetic was < 0.3 µg/mL.
Work on `CSc1sc(C(=O)Nc2ccc(F)cc2F)c2c1C=CCC2` yielded a solubility kinetic of 2.9 µg/mL (≈ 8.59 µM).
For `O=C(O)c1cccc(-n2c(/C=C/c3ccccc3)nc3ccccc3c2=O)c1`, the solubility kinetic was > 55.3 µg/mL.
`COc1cccc(NC(=S)N(CCN2CCCCC2)Cc2ccco2)c1` showed a solubility kinetic of 47.3 µg/mL (≈ 127 µM).
With `Cc1cccc(NC(=O)CSCC(=O)NCc2ccco2)c1` the solubility kinetic was > 47.8 µg/mL.
With `CCOC(=O)Cc1csc(NC(=O)c2cc(C)on2)n1` the solubility kinetic was > 44.3 µg/mL.
`O=C(Nc1cc(S(=O)(=O)N2CCOCC2)ccc1Cl)c1cc([N+](=O)[O-])ccc1Cl` showed a solubility kinetic of 2.8 µg/mL (≈ 6.08 µM).
In the case of `O=C(c1cc2ccccc2o1)N1CCOCC1`, the solubility kinetic was > 34.7 µg/mL.
With `COCC(=O)Nc1ccc(N2CCOCC2)c(S(=O)(=O)Nc2ccccc2OC)c1` the solubility kinetic was > 65.3 µg/mL.
`CC(C)Sc1nc(SCC(=O)O)c2c3c(sc2n1)COC(C)(C)C3` gave a solubility kinetic of 56.9 µg/mL (≈ 148 µM).
For `CN(C)C(=O)c1cc(C(=O)c2ccc(Cl)cc2Cl)c[nH]1`, the solubility kinetic was 23.4 µg/mL (≈ 75.2 µM).
With `O=C(O)CCC(=O)Nc1cccc(C(=O)c2ccccc2)c1` the solubility kinetic was > 44.6 µg/mL.
Molecule `Cc1sc2ncnc(Nc3ccc(O)cc3)c2c1C` has a solubility kinetic of 1.7 µg/mL (≈ 6.27 µM).
Work on `CC(C)(C)C(=O)NCCCNc1ccc([N+](=O)[O-])cc1` yielded a solubility kinetic of 38.3 µg/mL (≈ 137 µM).
For `COc1cc2c(cc1OC)CN(CC(=O)Nc1ccc(F)cc1)CC2`, the solubility kinetic was 39 µg/mL (≈ 113 µM).
In the case of `CCOc1ccc(/C=C2\SC(=S)N(C(C(=O)O)c3ccccc3)C2=O)cc1OC` (centres undefined), the solubility kinetic was > 64.4 µg/mL.
With `O=C(O)c1cccc(S(=O)(=O)Nc2ccc(N3CCCCC3)cc2)c1` the solubility kinetic was > 54.1 µg/mL.
With `COC(=O)c1cc(NC(=O)CN(C)C2CCS(=O)(=O)C2)cc(C(=O)OC)c1.O=C(O)C(=O)O` (centres undefined) the solubility kinetic was > 73.3 µg/mL.
In the case of `COc1cc(C(=S)N2CCCC2)ccc1OCC(N)=O`, the solubility kinetic was > 44.2 µg/mL.
With `Cc1ccc(OC(F)F)c(N2C(=O)C3C4CCC(O4)C3C2=O)c1` (centres undefined) the solubility kinetic was > 48.5 µg/mL.
With `O=S(=O)(c1ccc(Cl)cc1)N1CCCCCC1` the solubility kinetic was 11.4 µg/mL (≈ 41.6 µM).
With `Cc1ccc2nc(-c3ccccc3NC(=O)CCC(=O)O)c(=O)[nH]c2c1` the solubility kinetic was > 52.7 µg/mL.
For `COC(=O)c1cc(COC(=O)c2nc3nc(C)cc(C)n3n2)oc1C`, the solubility kinetic was > 51.6 µg/mL.
With `CCc1cc(=O)[nH]c(SCC(=O)N2CCCC2)n1` the solubility kinetic was > 40.1 µg/mL.
For `O=C(c1ccc([N+](=O)[O-])o1)N1CCCCCC1`, the solubility kinetic was > 35.7 µg/mL.
Molecule `COc1cc([N+](=O)[O-])ccc1NC(=O)Cc1ccccc1` has a solubility kinetic of 5.5 µg/mL (≈ 19.2 µM).
For `Cc1ccc(-c2nc3ncccc3o2)cc1N`, the solubility kinetic was > 33.8 µg/mL.
For `NS(=O)(=O)c1cc([N+](=O)[O-])ccc1NCc1cccnc1`, the solubility kinetic was 44.8 µg/mL (≈ 145 µM).
`CCOc1ccc(N=Cc2ccc3ccccc3c2)cc1` gave a solubility kinetic of 1.5 µg/mL (≈ 5.45 µM).
With `O=[N+]([O-])c1cccc(S(=O)(=O)N2CCCCC2)c1` the solubility kinetic was 37.5 µg/mL (≈ 139 µM).
`Cn1ccnc1SCC(=O)Nc1cc(F)ccc1F` gave a solubility kinetic of 41.8 µg/mL (≈ 148 µM).
`Cc1ccc(NC(=O)Cc2ccsc2)cc1Cl` gave a solubility kinetic of 4.6 µg/mL (≈ 17.3 µM).
With `Cc1cc(C)cc(NC(=O)N(C)Cc2ccccc2)c1` the solubility kinetic was 2 µg/mL (≈ 7.45 µM).
With `CCOc1ncccc1C(=O)NCC(c1ccccc1)N(C)C` (centres undefined) the solubility kinetic was > 47 µg/mL.
Work on `CC(C)Cc1ccc(C(=O)Nc2ccc(Cc3ccncc3)cc2)o1` yielded a solubility kinetic of 8.7 µg/mL (≈ 26 µM).
With `O=C(NC1CC1)C1CCN(S(=O)(=O)c2ccc(Cl)cc2)CC1` the solubility kinetic was 41.7 µg/mL (≈ 122 µM).
For `NC(=O)c1ccc(NC(=O)COC(=O)C2CC3C=CC2C3)cc1` (centres undefined), the solubility kinetic was > 47.2 µg/mL.
With `COC(=O)c1cc(C(=O)NCc2ccc3c(c2)OCO3)cc([N+](=O)[O-])c1` the solubility kinetic was 2.6 µg/mL (≈ 7.26 µM).
For `Cc1c(C)n(CCc2ccccc2)c2ncnc(NCCO)c12`, the solubility kinetic was > 46.6 µg/mL.
With `CN(CC(=O)Nc1ccc(F)c(F)c1F)C(=O)/C=C/c1ccco1` the solubility kinetic was > 50.7 µg/mL.
In the case of `Cc1cc(C)cc(N(C(C)C(=O)N2CCCC2)S(C)(=O)=O)c1` (centres undefined), the solubility kinetic was > 48.7 µg/mL.
For `O=C(NCC1CCCO1)C1CC(=O)N(c2ccc(Cl)cc2)C1` (centres undefined), the solubility kinetic was > 48.4 µg/mL.
For `CC1CCC(NC(=O)C(C)N2C(=O)C3CCCCC3C2=O)CC1` (centres undefined), the solubility kinetic was > 48.1 µg/mL.
For `Cc1cc(-c2ccccc2)nc2oc3c(c12)NC(=O)CN(c1ccccc1)C3=O`, the solubility kinetic was < 0.3 µg/mL.
In the case of `C=CCNC(=S)Nc1ccc(C)cc1[N+](=O)[O-]`, the solubility kinetic was > 37.7 µg/mL.
For `CC1c2ccsc2CCN1C(=O)NC(=O)c1ccc(Cl)cc1` (centres undefined), the solubility kinetic was 1.8 µg/mL (≈ 5.38 µM).
For `COC(=O)CNC(c1ccccc1)c1cc(Br)ccc1N` (centres undefined), the solubility kinetic was 5.5 µg/mL (≈ 15.7 µM).
For `COc1cccc(CC2(CO)CCN(Cc3cn(C)nc3C)CC2)c1`, the solubility kinetic was > 51.5 µg/mL.
With `O=C1CN(C(=O)COC(=O)[C@@H]2CC(O)CN2S(=O)(=O)c2ccc(Cl)cc2)c2ccccc2N1` (some centres undefined) the solubility kinetic was > 74.1 µg/mL.
`COc1ccc([N+](=O)[O-])cc1NC(=O)Nc1ccc(OC)c(OC)c1` showed a solubility kinetic of 0.3 µg/mL (≈ 0.864 µM).
Work on `Cc1ccc(SCC(=O)NC(=O)NCCC(C)C)c(C)c1` yielded a solubility kinetic of 1.4 µg/mL (≈ 4.54 µM).
With `CCOC(=O)c1cc(C)sc1/N=C/C1C(=O)NC(=S)NC1=O` the solubility kinetic was 4.7 µg/mL (≈ 13.8 µM).
`Cc1ccc(N2CN(Cc3ccco3)CNC2=S)cc1` showed a solubility kinetic of 33.8 µg/mL (≈ 118 µM).
In the case of `COCCCN1C(=O)CC(C(=O)OC)=C1C`, the solubility kinetic was > 34.1 µg/mL.
For `c1ccc(SSc2ccccn2)nc1`, the solubility kinetic was 25.5 µg/mL (≈ 116 µM).
In the case of `Cc1ccc(OCC(=O)NCCNC(=O)c2ccncc2)cc1`, the solubility kinetic was 45.1 µg/mL (≈ 144 µM).
Work on `COc1ccc(C=O)cc1CSc1ccccn1` yielded a solubility kinetic of 38.2 µg/mL (≈ 147 µM).
Molecule `C(#CCN1CCCCC1)COCc1ccccc1.Cl` has a solubility kinetic of 39 µg/mL.
In the case of `N#Cc1ccc2c(c1)NC(=O)C1CCCN21` (centres undefined), the solubility kinetic was 27.8 µg/mL (≈ 130 µM).
With `CC(=O)N1CCc2ccc(S(=O)(=O)Nc3ccccc3Cl)cc21` the solubility kinetic was 39.2 µg/mL (≈ 112 µM).
Work on `Cc1ccc(S(=O)(=O)N2CCCCC2)cc1NC(=O)COC(=O)c1cccn1C` yielded a solubility kinetic of 9 µg/mL (≈ 21.5 µM).
